In patent US6355799B1, “Substituted benzene compounds, process for their preparation, and herbicidal and defoliant compositions containing them” (ISK Americas Incorporated, priority 1997, dated 2002):

Legend:
Type in all cases: in vivo
[1] = tested on: redroot pigweed (Amaranthus retroflexus, AMARE); experiment: Pre-emerge test, greenhouse herbicide activity screening; settings: pre-emerge, 14 days after application
Method in brief: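 Plants grown in 10 cm pots of sandy loam mix received acetone-dissolved compounds through a moving flat-fan nozzle. Doses ranged from 15 to 1000 g ai/ha. Pre-emerge pots were seeded one day earlier, post-emerge pots 8–21 days earlier. Fourteen days on, each pot was graded 0–100 for damage.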

[2] = tested on: barnyardgrass (Echinochloa crus-galli, ECHCG); experiment: as above; settings: pre-emerge, 14 days after application
Method in brief: (§1)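 Compounds in acetone were track-sprayed at 187 l/ha, 15–1000 g ai/ha, onto sandy loam pots. Pre-emerge seeds were sown one day before spraying, with surface watering afterwards. Post-emerge plants were at the 2–3 leaf stage and sprayed with 0.25% v/v non-ionic surfactant. Injury was rated 0–100 at 14 days.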

[3] = tested on: common ragweed (Ambrosia artemisizfolia L., AMBEL); experiment: as above; settings: pre-emerge, 14 days after application
Method in brief: as §1

[4] = tested on: green foxtail (Setaria viridis, SETVI); experiment: as above; settings: pre-emerge, 14 days after application
Method in brief: as §1

[5] = tested on: ivyleaf morningglory (Ipomoea hederacea, IPOHE); experiment: as above; settings: pre-emerge, 14 days after application
Method in brief: as §1

[6] = tested on: johnsongrass (Sorghum halepense, SORHA); experiment: as above; settings: pre-emerge, 14 days after application
Method in brief: as §1

[7] = tested on: lambsquarters (Chenopodium album, CHEAL); experiment: as above; settings: pre-emerge, 14 days after application
Method in brief: as §1

[8] = tested on: large crabgrass (Digitaria sanguinalis, DIGSA); experiment: as above; settings: pre-emerge, 14 days after application
Method in brief: as §1

[9] = tested on: sicklepod (Cassia obtusifolia, CASOB); experiment: as above; settings: pre-emerge, 14 days after application
Method in brief: as §1

[10] = tested on: velvetleaf (Abutilon theophrasti, ABUTH); experiment: as above; settings: pre-emerge, 14 days after application
Method in brief: as §1

[11] = tested on: field corn (Zea mays L., var. Dekalb 535, CORN); experiment: Pre-emerge test, crop safety; settings: pre-emerge, 14 days after application; for phytotoxicity rating CORN (crop damage): scale 0-100; for phytotoxicity rating CORN: rating scale 0-100
Method in brief: (§2)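 Sandy loam pots; pre-emerge: sown 1 d pre-spray, surface-watered after, then bottom-watered. Post-emerge: sown 8–21 d before, 2–3 leaf stage, + 0.25% v/v NIS, bottom-watered. Acetone, 187 l/ha track spray, 15–1000 g ai/ha. 0–100 injury score, day 14.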

[12] = tested on: upland rice (Oryza sp., var. Tebonnet, RICE); experiment: Pre-emerge test, crop safety; settings: pre-emerge, 14 days after application; for phytotoxicity rating RICE (crop damage): scale 0-100; for phytotoxicity rating RICE: rating scale 0-100
Method in brief: as §2

[13] = tested on: barnyardgrass (Echinochloa crus-galli, ECHCG); experiment: Post-emerge test, greenhouse herbicide activity screening; settings: post-emerge, 14 days after application, rating scale 0-100
Method in brief: as §1

[14] = tested on: green foxtail (Setaria viridis, SETVI); experiment: as above; settings: post-emerge, 14 days after application, rating scale 0-100
Method in brief: as §1

[15] = tested on: ivyleaf morningglory (Ipomoea hederacea, IPOHE); experiment: as above; settings: post-emerge, 14 days after application, rating scale 0-100
Method in brief: as §1

[16] = tested on: johnsongrass (Sorghum halepense, SORHA); experiment: as above; settings: post-emerge, 14 days after application, rating scale 0-100
Method in brief: as §1

[17] = tested on: lambsquarters (Chenopodium album, CHEAL); experiment: as above; settings: post-emerge, 14 days after application, rating scale 0-100
Method in brief: as §1

[18] = tested on: large crabgrass (Digitaria sanguinalis, DIGSA); experiment: as above; settings: post-emerge, 14 days after application, rating scale 0-100
Method in brief: as §1

[19] = tested on: redroot pigweed (Amaranthus retroflexus, AMARE); experiment: as above; settings: post-emerge, 14 days after application
Method in brief: as §1

[20] = tested on: sicklepod (Cassia obtusifolia, CASOB); experiment: as above; settings: post-emerge, 14 days after application, rating scale 0-100
Method in brief: as §1

[21] = tested on: velvetleaf (Abutilon theophrasti, ABUTH); experiment: as above; settings: post-emerge, 14 days after application, rating scale 0-100
Method in brief: as §1

[22] = tested on: field corn (Zea mays L., var. Dekalb 535, CORN); experiment: Post-emerge test, crop safety; settings: post-emerge, 14 days after application, rating scale 0-100
Method in brief: as §1

[23] = tested on: upland rice (Oryza sp., var. Tebonnet, RICE); experiment: Post-emerge test, crop safety; settings: post-emerge, 14 days after application, rating scale 0-100
Method in brief: as §1

[24] = 250 g ai/ha, rating scale 0-100

Cn1c(C(F)(F)F)cc(=O)n(-c2c(F)cc(OC(F)F)cc2NC(=O)c2ccc3ccccc3c2)c1=O [2-148]
99: phytotoxicity rating IPOHE ([5]; 250 g ai/ha, scale 0-100)
25: CORN phytotoxicity rating (crop damage) ([22]; 63 g ai/ha)
30: phytotoxicity rating SORHA ([6]; 250 g ai/ha, scale 0-100) | CORN phytotoxicity rating (crop damage) ([22]; 250 g ai/ha)
60: phytotoxicity rating RICE (crop damage) ([12]; 250 g ai/ha)
90: phytotoxicity rating ECHCG ([2]; 63 g ai/ha, scale 0-100) | IPOHE phytotoxicity rating ([15]; 250 g ai/ha) | AMARE phytotoxicity rating [19, 24]
95: phytotoxicity rating SETVI ([4]; 250 g ai/ha, scale 0-100) | phytotoxicity rating DIGSA ([8]; 63 g ai/ha, scale 0-100) | phytotoxicity rating CASOB ([9]; 250 g ai/ha, scale 0-100) | CASOB phytotoxicity rating ([20]; 63 g ai/ha)
50: phytotoxicity rating IPOHE ([5]; 63 g ai/ha, scale 0-100) | phytotoxicity rating CASOB ([9]; 63 g ai/ha, scale 0-100) | ECHCG phytotoxicity rating ([13]; 63 g ai/ha) | SETVI phytotoxicity rating ([14]; 63 g ai/ha)
80: phytotoxicity rating SETVI ([4]; 63 g ai/ha, scale 0-100) | IPOHE phytotoxicity rating ([15]; 63 g ai/ha)
10: SORHA phytotoxicity rating ([16]; 250 g ai/ha) | RICE phytotoxicity rating (crop damage) ([23]; 250 g ai/ha)
40: SETVI phytotoxicity rating ([14]; 250 g ai/ha) | DIGSA phytotoxicity rating ([18]; 63 g ai/ha) | DIGSA phytotoxicity rating ([18]; 250 g ai/ha)
100: phytotoxicity rating AMARE ([1]; 63 g ai/ha, scale 0-100) | phytotoxicity rating AMARE ([1]; 250 g ai/ha, scale 0-100) | phytotoxicity rating ECHCG ([2]; 250 g ai/ha, scale 0-100) | phytotoxicity rating AMBEL ([3]; 250 g ai/ha, scale 0-100) | phytotoxicity rating CHEAL ([7]; 63 g ai/ha, scale 0-100) | phytotoxicity rating CHEAL ([7]; 250 g ai/ha, scale 0-100) | phytotoxicity rating DIGSA ([8]; 250 g ai/ha, scale 0-100) | phytotoxicity rating ABUTH ([10]; 63 g ai/ha, scale 0-100) | phytotoxicity rating ABUTH ([10]; 250 g ai/ha, scale 0-100) | CHEAL phytotoxicity rating ([17]; 63 g ai/ha) | CHEAL phytotoxicity rating ([17]; 250 g ai/ha) | AMARE phytotoxicity rating ([19]; 63 g ai/ha, rating scale 0-100) | CASOB phytotoxicity rating ([20]; 250 g ai/ha) | ABUTH phytotoxicity rating ([21]; 63 g ai/ha) | ABUTH phytotoxicity rating ([21]; 250 g ai/ha)
0: phytotoxicity rating AMBEL ([3]; 63 g ai/ha, scale 0-100) | phytotoxicity rating SORHA ([6]; 63 g ai/ha, scale 0-100) | phytotoxicity rating CORN (crop damage) ([11]; 63 g ai/ha) | phytotoxicity rating CORN (crop damage) ([11]; 250 g ai/ha) | phytotoxicity rating RICE (crop damage) ([12]; 63 g ai/ha) | SORHA phytotoxicity rating ([16]; 63 g ai/ha) | RICE phytotoxicity rating (crop damage) ([23]; 63 g ai/ha)
20: ECHCG phytotoxicity rating ([13]; 250 g ai/ha)

C=CC=NNc1c(OC)c(Cl)cc(F)c1-n1c(=O)cc(C(F)(F)F)n(C)c1=O [15-10]
60: Post-emerge Herbicidal Activity DIGSA (phytotoxicity rating) ([18]; 63 g ai/ha)
75: phytotoxicity rating CORN ([11]; 63 g ai/ha) | Post-emerge Herbicidal Activity SETVI (phytotoxicity rating) ([14]; 250 g ai/ha)
10: Post-emerge Herbicidal Activity ECHCG (phytotoxicity rating) ([13]; 63 g ai/ha)
65: Post-emerge Herbicidal Activity CORN (crop damage rating) ([22]; 250 g ai/ha)
80: phytotoxicity rating CASOB ([9]; 63 g ai/ha, rating scale 0-100) | phytotoxicity rating RICE ([12]; 63 g ai/ha) | Post-emerge Herbicidal Activity ECHCG (phytotoxicity rating) ([13]; 250 g ai/ha) | Post-emerge Herbicidal Activity RICE (crop damage rating) ([23]; 250 g ai/ha)
30: Post-emerge Herbicidal Activity SETVI (phytotoxicity rating) ([14]; 63 g ai/ha) | Post-emerge Herbicidal Activity SORHA (phytotoxicity rating) ([16]; 63 g ai/ha)
50: Post-emerge Herbicidal Activity RICE (crop damage rating) ([23]; 63 g ai/ha)
99: phytotoxicity rating ECHCG ([2]; 63 g ai/ha, rating scale 0-100)
70: Post-emerge Herbicidal Activity SORHA (phytotoxicity rating) ([16]; 250 g ai/ha)
45: Post-emerge Herbicidal Activity CORN (crop damage rating) ([22]; 63 g ai/ha)
100: phytotoxicity rating AMARE ([1]; 63 g ai/ha, rating scale 0-100) | phytotoxicity rating AMARE [1, 24] | phytotoxicity rating ECHCG [2, 24] | phytotoxicity rating AMBEL ([3]; 63 g ai/ha, rating scale 0-100) | phytotoxicity rating AMBEL [3, 24] | phytotoxicity rating SETVI ([4]; 63 g ai/ha, rating scale 0-100) | phytotoxicity rating SETVI [4, 24] | phytotoxicity rating IPOHE ([5]; 63 g ai/ha, rating scale 0-100) | phytotoxicity rating IPOHE [5, 24] | phytotoxicity rating SORHA ([6]; 63 g ai/ha, rating scale 0-100) | phytotoxicity rating SORHA [6, 24] | phytotoxicity rating CHEAL ([7]; 63 g ai/ha, rating scale 0-100) | phytotoxicity rating CHEAL [7, 24] | phytotoxicity rating DIGSA ([8]; 63 g ai/ha, rating scale 0-100) | phytotoxicity rating DIGSA [8, 24] | phytotoxicity rating CASOB [9, 24] | phytotoxicity rating ABUTH ([10]; 63 g ai/ha, rating scale 0-100) | phytotoxicity rating ABUTH [10, 24] | phytotoxicity rating CORN ([11]; 250 g ai/ha) | phytotoxicity rating RICE ([12]; 250 g ai/ha) | Post-emerge Herbicidal Activity IPOHE (phytotoxicity rating) ([15]; 63 g ai/ha) | Post-emerge Herbicidal Activity IPOHE (phytotoxicity rating) ([15]; 250 g ai/ha) | Post-emerge Herbicidal Activity CHEAL (phytotoxicity rating) ([17]; 63 g ai/ha) | Post-emerge Herbicidal Activity CHEAL (phytotoxicity rating) ([17]; 250 g ai/ha) | Post-emerge Herbicidal Activity AMARE (phytotoxicity rating) ([19]; 63 g ai/ha, rating scale 0-100 (0 no damage, 100 complete death)) | Post-emerge Herbicidal Activity AMARE (phytotoxicity rating) [19, 24] | Post-emerge Herbicidal Activity CASOB (phytotoxicity rating) ([20]; 63 g ai/ha) | Post-emerge Herbicidal Activity CASOB (phytotoxicity rating) ([20]; 250 g ai/ha) | Post-emerge Herbicidal Activity ABUTH (phytotoxicity rating) ([21]; 63 g ai/ha) | Post-emerge Herbicidal Activity ABUTH (phytotoxicity rating) ([21]; 250 g ai/ha)
90: Post-emerge Herbicidal Activity DIGSA (phytotoxicity rating) ([18]; 250 g ai/ha)
